From US7223782B2, “Pyrazole-amides and -sulfonamides” (Icagen, Inc., priority 2001, dated 2007)

Biological target: T1, PN3 (Homo sapiens, UniProt Q9Y5Y9)
T1 construct: expressed in transfected cells
Assay: 14C Guanidinium Ion Influx Binding Assay (flux assay)
Format: cell-based
Conditions: activity towards PN3, PN3 stably expressed in a host cell line, deltamethrine 10 μM
Method: ^14C Guanidinium Ion Influx Binding Assay
PN3 stably expressed in a host cell line were maintained in DMEM with 5% fetal bovine serum and 300 μg/ml G-418. The cells were subcultured and grown to confluence in 96-well plates 24–48 h before each experiment. After the growth medium was removed, the cells were washed with warm buffer (25 mM Hepes-Tris, 135 mM choline chloride, 5.4 mM potassium chloride, 0.98 mM magnesium sulfate, 5.5 mM glucose, and 1 mg/ml BSA, pH 7.4) and incubated in buffer on a 36° C. slide warmer for approximately 10 minutes. Various concentrations of the test compounds or standard sodium channel blockers (10 μM) and then deltamethrine (10 μM) were added to each well. After the cells were exposed to deltamethrine for 5 minutes, 5 μM of ^14C-guanidinium was added, incubated with the radioligand (30–60 min), washed with ice-cold buffer, and dissolved in 0.1N sodium hydroxide. The radioactivity and the protein concentration of each cell lysate were determined by liquid scintillation counting and the protein assay using Pierce BCA reagent.

T1 sequence (Q9Y5Y9 whole entry, species assumed): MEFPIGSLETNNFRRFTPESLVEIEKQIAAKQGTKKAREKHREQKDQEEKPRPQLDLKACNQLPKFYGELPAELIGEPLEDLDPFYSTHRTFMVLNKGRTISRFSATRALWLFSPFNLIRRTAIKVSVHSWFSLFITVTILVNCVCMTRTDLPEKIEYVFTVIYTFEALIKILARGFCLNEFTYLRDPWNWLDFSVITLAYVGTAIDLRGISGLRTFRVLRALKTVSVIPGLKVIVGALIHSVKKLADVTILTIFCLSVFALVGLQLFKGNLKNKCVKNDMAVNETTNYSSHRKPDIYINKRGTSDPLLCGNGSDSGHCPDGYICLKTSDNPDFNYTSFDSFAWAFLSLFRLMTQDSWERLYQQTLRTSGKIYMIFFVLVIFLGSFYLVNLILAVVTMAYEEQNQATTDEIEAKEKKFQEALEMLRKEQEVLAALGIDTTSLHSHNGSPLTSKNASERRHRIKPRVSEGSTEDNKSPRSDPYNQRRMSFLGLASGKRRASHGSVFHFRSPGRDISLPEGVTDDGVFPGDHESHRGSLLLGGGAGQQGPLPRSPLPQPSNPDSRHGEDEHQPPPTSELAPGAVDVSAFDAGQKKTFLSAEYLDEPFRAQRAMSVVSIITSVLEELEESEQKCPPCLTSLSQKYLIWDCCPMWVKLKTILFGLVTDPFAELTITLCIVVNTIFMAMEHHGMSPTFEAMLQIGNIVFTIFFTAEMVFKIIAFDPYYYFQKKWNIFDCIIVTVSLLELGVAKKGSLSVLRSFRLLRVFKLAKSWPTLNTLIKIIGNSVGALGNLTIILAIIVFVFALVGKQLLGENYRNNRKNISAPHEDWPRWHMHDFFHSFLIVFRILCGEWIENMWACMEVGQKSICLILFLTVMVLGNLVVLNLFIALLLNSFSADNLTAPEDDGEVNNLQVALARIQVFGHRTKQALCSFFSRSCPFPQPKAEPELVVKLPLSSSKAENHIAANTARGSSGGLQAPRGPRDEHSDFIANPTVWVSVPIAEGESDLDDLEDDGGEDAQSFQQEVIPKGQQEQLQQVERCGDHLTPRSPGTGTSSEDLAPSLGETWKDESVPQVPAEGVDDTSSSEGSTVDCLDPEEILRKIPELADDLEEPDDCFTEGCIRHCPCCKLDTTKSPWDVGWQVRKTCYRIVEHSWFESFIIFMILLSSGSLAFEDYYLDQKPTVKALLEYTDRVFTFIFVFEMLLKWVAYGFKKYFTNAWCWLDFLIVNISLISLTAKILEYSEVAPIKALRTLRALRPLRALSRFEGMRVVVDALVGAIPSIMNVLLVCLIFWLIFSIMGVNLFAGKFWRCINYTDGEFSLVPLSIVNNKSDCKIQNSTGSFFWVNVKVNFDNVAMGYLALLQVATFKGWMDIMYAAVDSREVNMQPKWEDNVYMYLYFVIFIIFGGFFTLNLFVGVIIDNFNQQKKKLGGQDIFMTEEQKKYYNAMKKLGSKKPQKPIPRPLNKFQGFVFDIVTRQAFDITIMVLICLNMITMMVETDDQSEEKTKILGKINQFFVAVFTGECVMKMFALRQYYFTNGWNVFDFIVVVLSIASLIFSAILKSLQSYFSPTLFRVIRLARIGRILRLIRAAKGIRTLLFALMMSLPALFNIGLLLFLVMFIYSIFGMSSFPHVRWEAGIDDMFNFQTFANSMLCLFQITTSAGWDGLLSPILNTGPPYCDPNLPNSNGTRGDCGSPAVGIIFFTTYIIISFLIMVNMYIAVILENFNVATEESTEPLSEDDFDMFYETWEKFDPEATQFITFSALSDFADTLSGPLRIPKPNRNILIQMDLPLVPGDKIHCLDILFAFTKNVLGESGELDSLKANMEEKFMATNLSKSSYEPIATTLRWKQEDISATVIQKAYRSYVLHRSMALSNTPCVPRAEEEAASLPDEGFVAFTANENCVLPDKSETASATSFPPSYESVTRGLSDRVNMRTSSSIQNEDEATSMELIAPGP

Row | Structure (SMILES) | IC50 [µM]
1 | O=C(NCCc1cccc(Cl)c1)c1cnn(-c2cccc(Cl)c2)c1 [Compound 449, 1-(3-Chloro-phenyl)-1H-pyrazole-4-carboxylic acid [2-(3-chloro-phenyl)-ethyl]-amide] | 0.1 to 4
2 | CN(C)CCNS(=O)(=O)c1cccc(NC(=O)c2cnn(-c3ccc(Cl)cc3)c2C(F)(F)F)c1 [Compound 1175, 1-(4-Chloro-phenyl)-5-trifluoromethyl-1H-pyrazole-4-carboxylic acid [3-(2-dimethylamino-ethylsulfamoyl)-phenyl]-amide] | 4.1 to 10
3 | Cn1nc(-c2ccccc2)cc1NC(=O)c1cnn(-c2ccc(Cl)cc2)c1C(F)(F)F [Compound 20, 1-(4-Chloro-phenyl)-5-trifluoromethyl-1H-pyrazole-4-carboxylic acid (2-methyl-5-phenyl-2H-pyrazol-3-yl)-amide] | 0.1 to 4
4 | CCCc1c(C(=O)NC(Cc2ccccc2)C(=O)OC)cnn1-c1ccccc1 (stereo not shown) [Compound 39, 3-Phenyl-2-[(1-phenyl-5-propyl-1H-pyrazole-4-carbonyl)-amino]-propionic acid methyl ester] | 0.1 to 4
5 | O=C(NCc1ccc(C(F)(F)F)cc1)c1cnn(-c2ccccc2)c1C(F)(F)F [Compound 444, 1-Phenyl-5-trifluoromethyl-1H-pyrazole-4-carboxylic acid 4-trifluoromethyl-benzylamide] | 4.1 to 10
6 | CS(=O)(=O)c1cccc(NC(=O)c2cnn(-c3ccc(Cl)cc3)c2C(F)(F)F)c1 [Compound 154, 1-(4-Chloro-phenyl)-5-trifluoromethyl-1H-pyrazole-4-carboxylic acid (3-methanesulfonyl-phenyl)-amide] | 0.1 to 4
7 | NS(=O)(=O)c1cccc(NC(=O)c2cnn(-c3ccc(Cl)cc3)c2C(F)(F)F)c1 [Compound 1054, 1-(4-Chloro-phenyl)-5-trifluoromethyl-1H-pyrazole-4-carboxylic acid (3-sulfamoyl-phenyl)-amide] | 0.1 to 4

Next, values leading:

Row | IC50 [µM] | Structure (SMILES)
8 | 0.1 to 4 | O=C(NCCc1cccc(F)c1)c1cnn(-c2ccc(Cl)cc2)c1C(F)(F)F [Compound 323, 1-(4-Chloro-phenyl)-5-trifluoromethyl-1H-pyrazole-4-carboxylic acid [2-(3-fluoro-phenyl)-ethyl]-amide]
9 | 0.1 to 4 | O=C(NCCc1ccc(F)cc1)c1cnn(-c2ccc(Cl)cc2)c1C(F)(F)F [Compound 411, 1-(4-Chloro-phenyl)-5-trifluoromethyl-1H-pyrazole-4-carboxylic acid [2-(4-fluoro-phenyl)-ethyl]-amide]
10 | 0.1 to 4 | O=C(NCCc1ccccc1Cl)c1cnn(-c2ccc(Cl)cc2)c1C(F)(F)F [Compound 414, 1-(4-Chloro-phenyl)-5-trifluoromethyl-1H-pyrazole-4-carboxylic acid [2-(2-chloro-phenyl)-ethyl]-amide]
11 | 10.1 to 30 | O=C(NCCc1ccccc1)c1cnn(-c2ccc(Cl)cc2)c1C(F)(F)F [Compound 114, 1-(4-Chloro-phenyl)-5-trifluoromethyl-1H-pyrazole-4-carboxylic acid phenethyl-amide]
12 | 4.1 to 10 | O=C(Nc1ccncc1)c1cnn(-c2ccc(Cl)cc2)c1C(F)(F)F [Compound 23, 1-(4-Chloro-phenyl)-5-trifluoromethyl-1H-pyrazole-4-carboxylic acid pyridin-4-ylamide]
13 | 0.1 to 4 | O=C(NCCc1cccc(Cl)c1)c1cnn(-c2ccc(F)cc2)c1C(F)(F)F [Compound 480, 1-(4-Fluoro-phenyl)-5-trifluoromethyl-1H-pyrazole-4-carboxylic acid [2-(3-chloro-phenyl)-ethyl]-amide]
